These results are taken from patent publication US20240067693A1, “POLYPEPTIDES AND USES THEREOF” (MEDIMMUNE LIMITED, priority 2020, published 2024).

Test [1] has as its target T1, human amylin receptor (calcitonin receptor co-expressed with receptor activity modifying protein, RAMP3) (hAMYR3) (Homo sapiens, UniProt O60896+P30988).
T1 construct: expressed in transfected cells
T1 sequence (P30988 25-474): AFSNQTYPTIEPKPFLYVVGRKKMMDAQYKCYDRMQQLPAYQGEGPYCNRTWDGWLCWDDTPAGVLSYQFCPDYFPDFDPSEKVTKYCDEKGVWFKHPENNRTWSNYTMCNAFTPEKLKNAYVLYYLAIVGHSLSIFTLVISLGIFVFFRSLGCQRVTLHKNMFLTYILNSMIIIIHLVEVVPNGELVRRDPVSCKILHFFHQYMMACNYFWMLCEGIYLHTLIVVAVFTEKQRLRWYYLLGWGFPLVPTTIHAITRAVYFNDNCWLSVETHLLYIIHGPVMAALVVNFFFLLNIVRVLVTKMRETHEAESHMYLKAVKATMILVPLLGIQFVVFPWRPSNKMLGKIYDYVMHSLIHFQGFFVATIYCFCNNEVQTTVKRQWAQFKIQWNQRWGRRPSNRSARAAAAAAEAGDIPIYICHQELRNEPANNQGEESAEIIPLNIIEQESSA
T1 sequence (O60896 24-148 partner): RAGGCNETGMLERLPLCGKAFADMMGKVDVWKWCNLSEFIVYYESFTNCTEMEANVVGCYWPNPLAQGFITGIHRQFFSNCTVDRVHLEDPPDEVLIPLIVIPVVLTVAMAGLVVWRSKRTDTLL
The test is described as follows: cAMP production in 1321N1 cells with stable recombinant expression of human amylin receptor (hAMYR3). In kind it is cell-based. The following applies: for Ratio (selectivity hAMYR vs hCTR, ratio of EC50 values at the two receptors): EC50 hCTR / EC50 hAMYR3; for EC50: cAMP, 1321N1 cells, assay buffer with 0.1% BSA, read-out: EC50 (pM) hAMYR3. In a few lines: (§1)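 Thawed cells in HBSS/0.1% BSA/25 mM HEPES pH 7.4 with 0.5 mM IBMX were incubated with peptides 30 min at room temperature; cAMP read by HTRF. EC50 from 4-parameter fit of % activation relative to maximal amylin or calcitonin effect.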

Test [2] has as its target T2, human calcitonin receptor (hCTR) (Homo sapiens, UniProt P30988).
T2 construct: expressed in transfected cells
T2 sequence (P30988 25-474): T1 sequence (P30988 25-474)
The test is described as follows: cAMP production in 1321N1 cells with stable recombinant expression of human calcitonin receptor (hCTR). In kind it is cell-based. The settings on record: cAMP, 1321N1 cells, assay buffer with 0.1% BSA; read-out: EC50 (pM) hCTR. In a few lines: as §1

Numbered stars: 1 amine (or outer) side, 2 acyl side, 3 side chain; on linkers, the order of the positions; unused ones are H or OH. Bridge positions count the residues as written; N and C are the ends. Square brackets hold non-standard residues; d marks the D form. Side chains are listed from the residue outwards. Peptide text beside a SMILES is read from it. * marks the point of attachment. C20 diacid = O=C(O)CCCCCCCCCCCCCCCCCCC(=O)*; C18 diacid = O=C(O)CCCCCCCCCCCCCCCCC(=O)*; γGlu = O=C(O)[C@H](CCC(=O)[*:2])N[*:1]; Aib = CC(C)(N)C(=O)O

For the compound `CC[C@H](C)[C@H](NC(=O)[C@H](C)NC(=O)[C@@H]1CCCN1C(=O)[C@H](Cc1ccccc1)NC(=O)[C@H](CC(N)=O)NC(=O)[C@@H]1CCCN1C(=O)[C@@H]1CCCN1C(=O)[C@H](CO)NC(=O)[C@H](Cc1c[nH]cn1)NC(=O)[C@@H](NC(=O)[C@H](CC(C)C)NC(=O)[C@H](Cc1ccccc1)NC(=O)[C@H](CC(N)=O)NC(=O)[C@H](C)NC(=O)[C@H](CC(C)C)NC(=O)[C@H](CCCNC(=N)N)NC(=O)[C@H](CCC(N)=O)NC(=O)[C@@H](NC(=O)[C@H](C)NC(=O)[C@@H]1CSSC[C@H](NC(=O)[C@@H](N)CCCCNC(=O)CC[C@H](NC(=O)CC[C@H](NC(=O)CCCCCCCCCCCCCCCCCCC(=O)O)C(=O)O)C(=O)O)C(=O)N[C@@H](CC(N)=O)C(=O)N[C@@H]([C@@H](C)O)C(=O)N[C@@H](C)C(=O)N[C@@H]([C@@H](C)O)C(=O)N1)[C@@H](C)O)C(C)C)C(=O)N[C@@H](CC(C)C)C(=O)N[C@@H](CO)C(=O)N1CCC[C@H]1C(=O)N[C@H](C(=O)N[C@@H](CC(N)=O)C(=O)N[C@H](C(=O)NCC(=O)N[C@@H](CO)C(=O)N[C@@H](CC(N)=O)C(=O)N[C@H](C(=O)N[C@@H](Cc1ccc(O)cc1)C(N)=O)[C@@H](C)O)C(C)C)[C@@H](C)O` [Peptide 119] (H-K([γGlu-γGlu-C20 diacid])CNTATCATQRLANFLVHSPPNFPAILSPTNVGSNTY-NH2; disulfide 2-7; N-terminus assumed), the “Ratio (selectivity hAMYR vs hCTR, ratio of EC50 values at the two receptors)” value in test [1] amounted to 24. For the same compound, the EC50 in test [1] amounted to 1460 pM; in test [2] it was 34700 pM.

As for `CC[C@@H](C)[C@@H](NC(=O)[C@@H]1CCCN1C(=O)CNC(=O)[C@H](Cc1ccccc1)NC(=O)[C@H](CC(N)=O)NC(=O)C(C)(C)NC(=O)[C@H](CO)NC(=O)[C@H](CO)NC(=O)[C@H](Cc1c[nH]cn1)NC(=O)[C@@H](NC(=O)[C@H](CC(C)C)NC(=O)[C@H](Cc1ccccc1)NC(=O)[C@H](CC(N)=O)NC(=O)[C@H](C)NC(=O)[C@H](CC(C)C)NC(=O)[C@H](CCCNC(=N)N)NC(=O)[C@H](CCC(N)=O)NC(=O)[C@@H](NC(=O)[C@H](C)NC(=O)[C@@H]1CSSC[C@H](NC(=O)[C@@H](N)CCCCNC(=O)CC[C@H](NC(=O)CCCCCCCCCCCCCCCCC(=O)O)C(=O)O)C(=O)N[C@@H](CC(N)=O)C(=O)N[C@@H]([C@@H](C)O)C(=O)N[C@@H](C)C(=O)N[C@@H]([C@@H](C)O)C(=O)N1)[C@@H](C)O)C(C)C)C(=O)N[C@@H](CC(C)C)C(=O)N1CCC[C@H]1C(=O)N1CCC[C@H]1C(=O)N[C@H](C(=O)N[C@@H](CC(N)=O)C(=O)N[C@H](C(=O)NCC(=O)N[C@@H](CO)C(=O)N[C@@H](CC(N)=O)C(=O)N[C@H](C(=O)N[C@@H](Cc1ccc(O)cc1)C(N)=O)[C@@H](C)O)C(C)C)[C@@H](C)O` [Peptide 61, K(γE-C18diacid)[CNTATC]ATQRLANFLVHSS(Aib)NFGP(dl)LPPTNVGSNTY-amide] (H-K([γGlu-C18 diacid])CNTATCATQRLANFLVHSS[Aib]NFGP[dI]LPPTNVGSNTY-NH2; disulfide 2-7; N-terminus assumed), in test [1], the “Ratio (selectivity hAMYR vs hCTR, ratio of EC50 values at the two receptors)” value is 7 and the concentration giving a half-maximal response (EC50) turned out to be 99 pM. In addition, the EC50 in test [2] stood at 654 pM.

For `CC[C@H](C)[C@H](NC(=O)[C@@H]1CCCN1C(=O)CNC(=O)[C@H](Cc1ccccc1)NC(=O)[C@H](CC(N)=O)NC(=O)[C@H](CC(N)=O)NC(=O)[C@H](CO)NC(=O)[C@H](CO)NC(=O)[C@H](Cc1c[nH]cn1)NC(=O)C(C)(C)NC(=O)[C@H](CC(C)C)NC(=O)[C@H](Cc1ccccc1)NC(=O)[C@H](CC(N)=O)NC(=O)[C@H](C)NC(=O)[C@H](CC(C)C)NC(=O)[C@H](CCCNC(=N)N)NC(=O)[C@H](CCC(N)=O)NC(=O)[C@@H](NC(=O)[C@H](C)NC(=O)[C@@H]1CSSC[C@H](NC(=O)[C@H](CCCCN)NC(=O)[C@@H](N)CCCCNC(=O)CC[C@H](NC(=O)CCCCCCCCCCCCCCCCC(=O)O)C(=O)O)C(=O)N[C@@H](CC(N)=O)C(=O)N[C@@H]([C@@H](C)O)C(=O)N[C@@H](C)C(=O)N[C@@H]([C@@H](C)O)C(=O)N1)[C@@H](C)O)C(=O)N[C@@H](CC(C)C)C(=O)N1CCC[C@H]1C(=O)N1CCC[C@H]1C(=O)N[C@H](C(=O)N[C@@H](CC(N)=O)C(=O)N[C@H](C(=O)NC(C)(C)C(=O)N[C@@H](CO)C(=O)N[C@@H](CC(N)=O)C(=O)N[C@H](C(=O)N[C@@H](Cc1ccc(O)cc1)C(N)=O)[C@@H](C)O)C(C)C)[C@@H](C)O` [Peptide 100, K(γE-C18diacid)K[CNTATC]ATQRLANFL(Aib)HSSNNFGPILPPTNV(Aib)SNTY-amide] (H-K([γGlu-C18 diacid])KCNTATCATQRLANFL[Aib]HSSNNFGPILPPTNV[Aib]SNTY-NH2; disulfide 3-8; N-terminus assumed), in test [1], the “Ratio (selectivity hAMYR vs hCTR, ratio of EC50 values at the two receptors)” value came to 1 and the EC50 stood at 364 pM. For the same compound, the EC50 in test [2] was 459 pM.

As to `CC[C@H](C)[C@H](NC(=O)[C@@H]1CCCN1C(=O)CNC(=O)[C@H](Cc1ccccc1)NC(=O)[C@H](CC(N)=O)NC(=O)C(C)(C)NC(=O)[C@H](CO)NC(=O)[C@H](CO)NC(=O)[C@H](Cc1c[nH]cn1)NC(=O)[C@H](CCCNC(=N)N)NC(=O)[C@H](CC(C)C)NC(=O)[C@H](Cc1ccccc1)NC(=O)[C@H](CC(N)=O)NC(=O)[C@H](C)NC(=O)[C@H](CC(C)C)NC(=O)[C@H](CCCNC(=N)N)NC(=O)[C@H](CCC(N)=O)NC(=O)[C@@H](NC(=O)[C@H](C)NC(=O)[C@@H]1CSSC[C@H](NC(=O)[C@@H](N)CCCCNC(=O)CC[C@H](NC(=O)CC[C@H](NC(=O)CCCCCCCCCCCCCCCCC(=O)O)C(=O)O)C(=O)O)C(=O)N[C@@H](CC(N)=O)C(=O)N[C@@H]([C@@H](C)O)C(=O)N[C@@H](C)C(=O)N[C@@H]([C@@H](C)O)C(=O)N1)[C@@H](C)O)C(=O)N[C@@H](CC(C)C)C(=O)N1CCC[C@H]1C(=O)N1CCC[C@H]1C(=O)N[C@H](C(=O)N[C@@H](CCCNC(=N)N)C(=O)N[C@H](C(=O)NCC(=O)N[C@@H](CO)C(=O)N[C@@H](CC(N)=O)C(=O)N[C@H](C(=O)N[C@@H](Cc1ccc(O)cc1)C(N)=O)[C@@H](C)O)C(C)C)[C@@H](C)O` [Peptide 77, K(γE-γE-C18diacid)[CNTATC]ATQRLANFLRHSS(Aib)NFGPILPPTRVGSNTY-amide] (H-K([γGlu-γGlu-C18 diacid])CNTATCATQRLANFLRHSS[Aib]NFGPILPPTRVGSNTY-NH2; disulfide 2-7; N-terminus assumed), in test [1], the “Ratio (selectivity hAMYR vs hCTR, ratio of EC50 values at the two receptors)” value was 11 and the EC50 was 231 pM. Moreover, in test [2], the half-maximal effective concentration (EC50) turned out to be 2520 pM.
